From patent publication US20160297830A1, “NOVEL COMPOUNDS USEFUL FOR THE TREATMENT OF BACTERIAL INFECTIOUS DISEASES” (GALAPAGOS NV, priority 2013, published 2016)
≈ marks a conversion by molar mass, not a printed value. Where two headings read alike, the source gives them in different places.

Assays:
E. coli Ec1 ATCC 25922 = experiment: Antibacterial activity assay (MIC), E. coli Ec1; type: cell-based; settings: Escherichia coli
[1] = molecular target: DNA Polymerase IIIα (DnaE) from Staphylococcus aureus (Staphylococcus aureus, UniProt Q6GG04); experiment: biochemical
Chain of DNA Polymerase IIIα (DnaE) from Staphylococcus aureus (Q6GG04 1-1022): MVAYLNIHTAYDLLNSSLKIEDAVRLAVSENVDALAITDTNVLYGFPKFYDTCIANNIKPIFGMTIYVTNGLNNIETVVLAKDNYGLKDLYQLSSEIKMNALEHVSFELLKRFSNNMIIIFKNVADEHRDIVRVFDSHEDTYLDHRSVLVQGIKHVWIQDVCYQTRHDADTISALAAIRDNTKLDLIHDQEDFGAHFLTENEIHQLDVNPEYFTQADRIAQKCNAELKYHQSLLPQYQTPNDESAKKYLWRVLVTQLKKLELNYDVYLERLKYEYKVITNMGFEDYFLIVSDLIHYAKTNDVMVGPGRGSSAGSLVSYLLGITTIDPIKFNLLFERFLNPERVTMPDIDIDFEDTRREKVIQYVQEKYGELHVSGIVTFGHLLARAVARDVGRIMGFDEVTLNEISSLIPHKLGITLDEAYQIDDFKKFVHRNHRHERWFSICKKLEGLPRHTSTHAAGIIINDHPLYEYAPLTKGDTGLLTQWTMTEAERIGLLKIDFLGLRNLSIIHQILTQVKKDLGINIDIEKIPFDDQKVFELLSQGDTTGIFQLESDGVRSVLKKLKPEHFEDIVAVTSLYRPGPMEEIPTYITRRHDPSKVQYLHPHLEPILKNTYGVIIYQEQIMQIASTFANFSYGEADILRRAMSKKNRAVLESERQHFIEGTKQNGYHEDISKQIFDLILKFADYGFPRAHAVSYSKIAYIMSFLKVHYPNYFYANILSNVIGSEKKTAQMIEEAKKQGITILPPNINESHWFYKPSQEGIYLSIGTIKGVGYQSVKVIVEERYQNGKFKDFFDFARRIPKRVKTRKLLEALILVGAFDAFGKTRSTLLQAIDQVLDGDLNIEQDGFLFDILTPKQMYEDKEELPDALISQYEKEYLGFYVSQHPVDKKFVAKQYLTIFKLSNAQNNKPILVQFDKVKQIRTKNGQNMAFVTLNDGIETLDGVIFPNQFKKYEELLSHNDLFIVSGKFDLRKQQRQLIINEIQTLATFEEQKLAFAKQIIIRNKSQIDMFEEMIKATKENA

DNA III Polymerase E = DNA III Polymerase E (Escherichia coli, UniProt P10443); experiment: In vitro activity against DNA III Polymerase E, E. coli; type: biochemical
Chain of DNA III Polymerase E (P10443 whole entry): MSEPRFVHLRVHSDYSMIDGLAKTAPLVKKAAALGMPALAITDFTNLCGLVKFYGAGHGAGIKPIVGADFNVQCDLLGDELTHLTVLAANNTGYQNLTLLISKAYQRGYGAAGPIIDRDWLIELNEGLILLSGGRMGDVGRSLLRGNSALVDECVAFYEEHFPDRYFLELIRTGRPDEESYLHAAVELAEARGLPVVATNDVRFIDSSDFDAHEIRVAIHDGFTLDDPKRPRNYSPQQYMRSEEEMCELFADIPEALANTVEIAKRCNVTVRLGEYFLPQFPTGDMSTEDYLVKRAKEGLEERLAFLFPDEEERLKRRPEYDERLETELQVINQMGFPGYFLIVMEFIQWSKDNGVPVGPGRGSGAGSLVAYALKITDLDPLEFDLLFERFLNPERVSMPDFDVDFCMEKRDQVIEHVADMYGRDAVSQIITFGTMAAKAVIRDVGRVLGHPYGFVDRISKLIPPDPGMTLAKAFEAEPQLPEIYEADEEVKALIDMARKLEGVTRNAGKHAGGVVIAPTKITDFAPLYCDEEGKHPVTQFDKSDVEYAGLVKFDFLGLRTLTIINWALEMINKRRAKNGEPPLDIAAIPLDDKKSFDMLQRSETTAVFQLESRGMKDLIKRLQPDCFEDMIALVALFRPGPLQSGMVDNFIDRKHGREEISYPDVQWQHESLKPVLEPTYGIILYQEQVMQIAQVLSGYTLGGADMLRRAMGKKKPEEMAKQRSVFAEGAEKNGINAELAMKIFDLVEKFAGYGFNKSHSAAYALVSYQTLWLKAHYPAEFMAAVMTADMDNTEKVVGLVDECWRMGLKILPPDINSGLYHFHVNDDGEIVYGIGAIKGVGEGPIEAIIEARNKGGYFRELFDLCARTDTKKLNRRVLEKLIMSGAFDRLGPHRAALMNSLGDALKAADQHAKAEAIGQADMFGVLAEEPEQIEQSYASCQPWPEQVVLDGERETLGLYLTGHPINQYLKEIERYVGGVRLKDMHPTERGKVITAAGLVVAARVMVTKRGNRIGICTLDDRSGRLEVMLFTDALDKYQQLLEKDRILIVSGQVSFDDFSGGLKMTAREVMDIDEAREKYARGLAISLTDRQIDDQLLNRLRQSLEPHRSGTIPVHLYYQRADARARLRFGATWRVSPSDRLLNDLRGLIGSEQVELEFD
Procedure: A radioactive filterplate assay was used to assess inhibitory activity of compounds on DNA Polymerase IIIα. Five μL of a dilution series of compound, starting from 100 μM highest concentration, 1/5 dilution, was added to the wells of a 96 well plate. Recombinant enzyme was diluted to 0.47 μg/mL in a buffer containing 20 mM Tris pH7.5, 8 mM DTT, 10 mM MgOAc, 0.05% CHAPS and 10 μL thereof was added to the compound dilutions. The reaction was started with the addition of 10 μL substrate in the same buffer, containing activated calf thymus DNA (Sigma, D4522), dATP, dGTP, dCTP, dTTP (Invitrogen) and [α-33P]-dTTP (Perkin Elmer, NEG605H001) at a concentration of 62.5 μg/mL, 50 nM and 7.5 μCi/mL respectively. The mixture was incubated at 30° C. for 120 minutes and terminated by addition of phosphoric acid. Samples were transferred to filter plates and incorporated radioactivity was measured by the Topcount. Data were converted to percent inhibition with respect to positive and negative controls. IC50 values were calculated using Graph Prism™ software.

S. aureus Sa1 ATCC 13709 = experiment: microbe, parasite or virus in culture; type: cell-based; settings: Staphylococcus aureus
[2] = test system: S. aureus Sa2 clinical strain NCIMB 41953, MRSA; experiment: microbe, parasite or virus in culture; type: cell-based; settings: Staphylococcus aureus, read-out: MIC Sa2
[3] = test system: E. coli Ec113 efflux pump KO; experiment: microbe, parasite or virus in culture; type: cell-based; settings: Escherichia coli, read-out: MIC Ec113 efflux pump KO
S. aureus Sa4 NCTC 6571 = experiment: Antibacterial activity assay (MIC), S. aureus Sa4; type: cell-based; settings: Staphylococcus aureus
[4] = test system: H. influenza Hi10 clinical strain; experiment: organism not typed; type: cell-based; settings: read-out: MIC Hi10
[5] = test system: H. influenza Hi106 ATCC 51907; experiment: organism not typed; type: cell-based; settings: read-out: MIC Hi106
[6] = test system: H. influenza Hi3 ATCC 31517; experiment: organism not typed; type: cell-based; settings: read-out: MIC Hi3
[7] = test system: E. coli Ec50 efflux pump KO; experiment: microbe, parasite or virus in culture; type: cell-based; settings: Escherichia coli, read-out: MIC Ec50 efflux pump KO
[8] = test system: H. influenza Hi47 clinical strain, Ampicillin Resistant; experiment: organism not typed; type: cell-based; settings: read-out: MIC Hi47
[9] = test system: S. aureus Sa26 ATCC 25923; experiment: Antibacterial activity assay (MIC), S. aureus Sa26; type: cell-based; settings: Staphylococcus aureus
[10] = ATCC25922, E. coli Ec1 ATCC 25922, sensitive strain, read-out: MIC Ec1
[11] = ATCC13709, S. aureus Sa1 ATCC 13709, sensitive strain, Mueller-Hinton Broth, 37° C., read-out: MIC Sa1
[12] = NCTC6571, S. aureus Sa4 NCTC 6571, sensitive strain, read-out: MIC Sa4
[13] = ATCC25923, read-out: MIC Sa26 + 10% SH, S. aureus Sa26 + 10% SH
[14] = ATCC25923, read-out: MIC Sa26 + 50% SH, S. aureus Sa26 + 50% SH
[15] = ATCC25923, S. aureus Sa26 ATCC 25923, sensitive strain, Mueller-Hinton Broth, 37° C., read-out: MIC Sa26
[16] = DNA polymerase III, E. coli, read-out: IC50 semiquantitative scoring, E. coli
[17] = DNA polymerase III, S. aureus, read-out: IC50 semiquantitative scoring, S. aureus
[18] = ATCC25923, read-out: MIC Sa26 + 10% SH
[19] = ATCC25923, read-out: MIC Sa26 + 50% SH

SMILES | MIC (E. coli Ec1 ATCC 25922; [10]) [µg/mL] | IC50 [1] [nM] | IC50 (DNA III Polymerase E) [nM] | MIC (S. aureus Sa1 ATCC 13709; [11]) [µg/mL] | MIC [2] [µg/mL] | MIC [3] [µg/mL] | MIC (S. aureus Sa4 NCTC 6571; [12]) [µg/mL] | MIC [4] [µg/mL] | MIC [5] [µg/mL] | MIC [6] [µg/mL] | MIC [7] [µg/mL] | MIC [8] [µg/mL] | MIC [9, 13] [µg/mL] | MIC [9, 14] [µg/mL] | MIC [9, 15] [µg/mL] | IC50 (DNA III Polymerase E; [16]) [nM] | other results
COC[C@@H](O)[C@H]1OC(=O)[C@H](COC)[C@H]2C=C[C@H]3[C@H]4O[C@]2(/C(C)=C/[C@H]1C)[C@@H]3[C@H](O)[C@@H](C)[C@H]4O [Compound 1, Baleomycin] | > 64 | 2210 to 22100 | 2210 to 22100 | > 64 | > 64 | 0.5 (≈ 1.1 µM) | > 64 | > 64 | 64 (≈ 141 µM) | > 64 | 2 (≈ 4.42 µM) | 64 (≈ 141 µM) | > 64 | > 64 | > 64 |  | 
COC[C@@H](O)[C@H]1OC(=O)[C@H](COC)[C@H]2C=C[C@H]3[C@H]4O[C@]2(/C(C)=C/[C@H]1C)[C@@H]3[C@H](O)[C@@H](C)[C@H]4OC(=O)c1ccc[nH]1 [Compound 3, 8-O-1H-pyrrole-2′-carbonylbaleomycin] | > 64 | 1.83 to 1830 |  | 0.5 (≈ 0.916 µM) | 0.5 (≈ 0.916 µM) | 0.125 (≈ 0.229 µM) | 0.5 (≈ 0.916 µM) | 64 (≈ 117 µM) | 64 (≈ 117 µM) | > 64 | 8 (≈ 14.7 µM) | > 64 | 1 | 2 | 1 (≈ 1.83 µM) | 1830 to 18300 | 
COCC[C@H]1OC(=O)[C@H](COC)[C@H]2C=C[C@H]3[C@H]4O[C@]2(/C(C)=C/[C@H]1C)[C@@H]3[C@H](O)[C@@H](COC)[C@H]4OC(=O)c1ccc[nH]1 [Compound 4, 17-Deoxy-8-O-1H-pyrrole-2′-carbonylbranimycin] | > 64 | 1.79 to 1790 | > 17900 | 4 (≈ 7.15 µM) | 4 (≈ 7.15 µM) | 4 (≈ 7.15 µM) | 2 (≈ 3.57 µM) | > 64 |  | > 64 | > 64 |  | 4 | 8 | 4 (≈ 7.15 µM) |  | 
COC[C@@H]1[C@@H](O)[C@@H]2[C@H]3C=C[C@@H]4[C@@H](COC)C(=O)O[C@H]([C@H](O)COC)[C@H](C)/C=C(\C)[C@@]24O[C@H]3[C@@H]1OC(=O)c1ccoc1 [Compound 5, 8-O-Furane-3′-carbonylbranimycin] | > 64 |  |  | 2 (≈ 3.47 µM) | 2 (≈ 3.47 µM) |  | 2 (≈ 3.47 µM) | > 64 | > 64 | > 64 | > 64 | > 64 | 2 | 4 | 4 (≈ 6.94 µM) | > 17300 | IC50 [1, 17]: 1.73 to 1730 nM
COC[C@@H]1[C@@H](O)[C@@H]2[C@H]3C=C[C@@H]4[C@@H](COC)C(=O)O[C@H]([C@H](O)COC)[C@H](C)/C=C(\C)[C@@]24O[C@H]3[C@@H]1OC(=O)c1ccc(C)[nH]1 [Compound 6, 8-O-5-Methyl-1H-pyrrole-2′-carbonylbranimycin] |  | 1.7 to 1700 |  |  | 64 (≈ 109 µM) | 8 (≈ 13.6 µM) |  | > 64 | > 64 | > 64 |  | > 64 |  |  |  | > 17000 | MIC (E. coli Ec1 ATCC 25922; ATCC25922, read-out: MIC Ec1): > 64 µg/mL; MIC (S. aureus Sa1 ATCC 13709; ATCC13709, read-out: MIC Sa1): > 64 µg/mL; MIC (S. aureus Sa4 NCTC 6571; NCTC6571, read-out: MIC Sa4): > 64 µg/mL; MIC ([9]; ATCC25923, read-out: MIC Sa26): > 64 µg/mL; MIC [9, 18]: > 64 µg/mL; MIC [9, 19]: > 64 µg/mL
COC[C@@H](O)[C@H]1OC(=O)[C@H](COC)[C@H]2C=C[C@H]3[C@H]4O[C@]2(/C(C)=C/[C@H]1C)[C@@H]3[C@H](O)[C@@H](C)[C@H]4OC(=O)c1ccoc1 [Compound 7, 8-O-Furane-3′-carbonylbaleomycin] | > 64 | 1.83 to 1830 | 1.83 to 1830 | 8 (≈ 14.6 µM) | 8 (≈ 14.6 µM) | 0.125 (≈ 0.229 µM) | 8 (≈ 14.6 µM) | 64 (≈ 117 µM) | 64 (≈ 117 µM) | > 64 | > 64 | 64 (≈ 117 µM) | 16 | 16 | 16 (≈ 29.3 µM) |  | 
COC[C@@H]1[C@@H](O)[C@@H]2[C@H]3C=C[C@@H]4[C@@H](COC)C(=O)O[C@H]([C@H](O)COC)[C@H](C)/C=C(\C)[C@@]24O[C@H]3[C@@H]1OC(=O)c1cocn1 [Compound 8, 8-O-Oxazole-4′-carbonylbranimycin] | > 64 |  |  | > 64 | > 64 | 64 (≈ 111 µM) | > 64 | > 64 | > 64 | > 64 | > 64 | > 64 | > 64 | > 64 | > 64 | > 17300 | IC50 [1, 17]: 1730 to 17300 nM
COC[C@@H]1[C@@H](O)[C@@H]2[C@H]3C=C[C@@H]4[C@@H](COC)C(=O)O[C@H]([C@H](O)COC)[C@H](C)/C=C(\C)[C@@]24O[C@H]3[C@@H]1OC(=O)c1ccsc1 [Compound 9, 8-O-Thiophene-3′-carbonylbranimycin] | > 64 |  |  | 4 (≈ 6.75 µM) | 4 (≈ 6.75 µM) | 4 (≈ 6.75 µM) | 2 (≈ 3.37 µM) | > 64 | > 64 | > 64 | > 64 | > 64 | 2 | 4 | 2 (≈ 3.37 µM) | > 16900 | IC50 [1, 17]: 1.69 to 1690 nM
COC[C@@H]1[C@@H](O)[C@@H]2[C@H]3C=C[C@@H]4[C@@H](COC)C(=O)O[C@H]([C@H](O)COC)[C@H](C)/C=C(\C)[C@@]24O[C@H]3[C@@H]1OC(=O)c1cc[nH]n1 [Compound 10, 8-O-1H-Pyrazole-3′-carbonylbranimycin] | > 64 | 1.73 to 1730 | > 17300 | 16 (≈ 27.7 µM) | 16 (≈ 27.7 µM) | 16 (≈ 27.7 µM) | 16 (≈ 27.7 µM) | > 64 | > 64 | > 64 | > 64 | > 64 | 16 | 8 | 16 (≈ 27.7 µM) |  | 
COC[C@@H]1[C@@H](O)[C@@H]2[C@H]3C=C[C@@H]4[C@@H](COC)C(=O)O[C@H]([C@H](O)COC)[C@H](C)/C=C(\C)[C@@]24O[C@H]3[C@@H]1OC(=O)c1ccoc1C [Compound 11, 8-O-2-Methylfurane-3′-carbonylbranimycin] | > 64 | 1690 to 16900 | > 16900 | > 64 | > 64 | 8 (≈ 13.5 µM) | > 64 | > 64 | > 64 | > 64 | > 64 | > 64 | > 64 | > 64 | > 64 |  | 
COC[C@@H](O)[C@H]1OC(=O)[C@H](COC)[C@H]2C=C[C@H]3[C@H]4O[C@]2(/C(C)=C/[C@H]1C)[C@@H]3[C@H](O)[C@@H](C)[C@H]4OC(=O)c1cc(F)c[nH]1 [Compound 23, 8-O-4-Fluoro-1H-pyrrole-2′-carbonylbaleomycin] |  | 1.77 to 1770 |  |  | 4 (≈ 7.1 µM) | 0.12 (≈ 0.213 µM) |  | 64 (≈ 114 µM) | 64 (≈ 114 µM) | > 64 |  | 64 (≈ 114 µM) |  |  |  | 1770 to 17700 | MIC (E. coli Ec1 ATCC 25922; ATCC25922, read-out: MIC Ec1): > 64 µg/mL; MIC (S. aureus Sa1 ATCC 13709; ATCC13709, read-out: MIC Sa1): 1 µg/mL (≈ 1.77 µM); MIC (S. aureus Sa4 NCTC 6571; NCTC6571, read-out: MIC Sa4): 1 µg/mL (≈ 1.77 µM); MIC ([9]; ATCC25923, read-out: MIC Sa26): 1 µg/mL (≈ 1.77 µM); MIC [9, 18]: 2 µg/mL; MIC [9, 19]: 4 µg/mL
